Laboratory results reported in patent US10583206B2, “Radioactive probe for detecting hydrogen sulfide” (KYUNGPOOK NATIONAL UNIVERSITY INDUSTRY-ACADEMIC COOPERATION …, priority 2015, dated 2020).

How the values were obtained:
[1] = Imaging study of hydrogen sulfide in normal rat (PET); type: in vivo; conditions: PET image before excision of the tongue
Text: PET images were obtained after injecting the ^64Cu-labeled complex compound of Example 1 into a normal rat, and PET images were obtained again after excision of the tongue thereof. […] However, after excision (B), the uptake was decreased in the same site. […] (C) is a photograph taken before imaging the tongue after excision.

[2] = Hydrogen sulfide selectivity test: decomplexation by Hcys; type: physicochemical; conditions: 100 μM or L-Hcys (10 mM), 37° C. for 15 minutes
Method: (§1) In addition to hydrogen sulfide, many different anions, radicals, etc. exist in the body. Therefore, to examine selective reactivity of the ^64Cu-labeled complex compound according to the present disclosure for sulfide ions, the following experiment was performed.
(§2) About 45 μCi-55 μCi of the ^64Cu-labeled complex compound (250 μL of triple distilled water) was mixed with 100 μM of various anion solutions (250 μL of triple distilled water) including biothiol, and stirred at 37° C. for 15 minutes.
(§3) Formation of copper sulfide (^64CuS) was quantified by using a radio-TLC scanner.
(§4) Various biothiol or salt solutions were prepared by dissolving the compounds in triple distilled water.
(§5) In Table, concentrations of all biothiols and other competitive materials are 100 μM. Further, specific concentrations of biothiols, anions, and oxidants used in Table are as follows: [L-Cys (1 mM); L-Hcys (10 mM); GSH (10 mM); DL-dithiothretitol (DTT, 100 μM); L-ascorbic acid (L-AsA, 10 mM); 2-mercaptoethanol (2-ME, 10 mM); NaCl (10 mm); KI (1 mM); Na2S2O3 (1 mM); Na2S2O5 (1 mM); NaOAc (1 mM); H2O2 ([…]); NaClO4 (100 μM); NaHCO3 (100 μM); NaNO2 ([…]); NaN3 (100 μM); ATB 337 (100 μM); diallyl trisulphide (100 μM)].

[3] = Hydrogen sulfide selectivity test: decomplexation by NaCl; type: physicochemical; conditions: 100 μM or NaCl (10 mm), 37° C. for 15 minutes
Method: as §1, §2, §3, §4, §5

[4] = Hydrogen sulfide selectivity test: decomplexation by Cys; type: physicochemical; conditions: 100 μM or L-Cys (1 mM), 37° C. for 15 minutes
Method: as §1, §2, §3, §4, §5

CT26 tumor = test: Imaging study in CT26 tumor model (PET); type: in vivo, BALB/c mouse
Text: (§6) To prepare a CT26 tumor model, the number of cells was counted using a haemacytometer, and 5×10^6 cells were subcutaneously injected into the right flank of BALB/c mouse. About 10 days later, when formation of about 1 cm of tumor was observed, the mice were used in subsequent experiments.
(§7) PET images were obtained after injecting the ^64Cu-labeled complex compound of Example 1 into the prepared rat model having EMT6 tumor and rat model having CT26 tumor.

[5] = Test of hydrogen sulfide-specific imaging (matrigel/NaHS sites on backs of rats, optical imaging); type: in vivo
Method: In order to examine whether the ^64Cu-labeled complex compounds according to the present disclosure are able to selectively detect in vivo hydrogen sulfide, different materials were injected into the backs of rats, and then each ^64Cu-labeled complex compound according to the present disclosure was injected via the tail, and then selective imaging was examined by optical imaging.
Referring to FIG. 4, at the beginning of the first experiment, matrigel alone, matrigel+1 mg NaCl, matrigel+0.5 mg NaHS, and matrigel+0.05 mg NaHS were injected into four sites on the backs of rats, respectively. 1.8 mCi of the ^64Cu-labeled complex compound according to Example 1 was injected via the tails of rats, immediately followed by optical imaging.

[6] = Hydrogen sulfide selectivity test: decomplexation by GSH; type: physicochemical; conditions: 100 μM or GSH (10 mM), 37° C. for 15 minutes
Method: as §1, §2, §3, §4, §5

EMT6 tumor = test: Imaging study in EMT6 tumor model (PET); type: in vivo, BALB/c female mouse
Text: as §6, with “an EMT6” for “a CT26”, “2×10^5” for “5×10^6”, “flank and left shoulder region” for “flank”, “BALB/c female” for “BALB/c”, “2˜3 weeks” for “10 days”
as §7

[7] = Hydrogen sulfide selectivity test: decomplexation by DTT; type: physicochemical; conditions: DL-dithiothretitol (DTT, 100 μM); 37° C. for 15 minutes
Method: as §1, §2, §3, §4, §5

[8] = Hydrogen sulfide selectivity test: decomplexation by H2O2; type: physicochemical; conditions: H2O2 (100 µM); 37° C. for 15 minutes
Method: as §1, §2, §3, §4, §5

[9] = Hydrogen sulfide selectivity test: decomplexation by DAT (diallyl trisulphide); type: physicochemical; conditions: DAT = diallyl trisulphide (100 μM); 37° C. for 15 minutes
Method: as §1, §2, §3, §4, §5

[10] = Hydrogen sulfide selectivity test: decomplexation by ATB 337; type: physicochemical; conditions: ATB 337 (100 μM); 37° C. for 15 minutes
Method: as §1, §2, §3, §4, §5

Arthritis model = test: Imaging in arthritis model; type: in vivo, DBA/1J mice
Method: An arthritis inducer, bovine type II collagen was intradermally injected into the tails of DBA/1J mice twice, and 5 weeks later (about 13-week-old), the mice were used in imaging tests. Arthritis degree of the paw was quantified by scoring.
Nuclear medicine imaging was measured by using an Inveon PET/CT system of Siemens Healthcare, and optical imaging was measured by using IVIS spectrum CT equipment. Cherenkov radiation emitted from ^64Cu was measured by using a highly sensitive CCD (charge-coupled device) camera.
Imaging was measured for 1 minute to 5 minutes, and a radiation dose was about 50 μCi to 2000 μCi, and photographs were variously taken as needed, such as immediately after first injection, at 1 hour, 4 hours, and 24 hours later.

Pancreatitis model = test: Imaging study in pancreatitis model; type: in vivo, Balb/c mouse; conditions: optical images; PET images after excision of tissues
Method: Caerulein (50 μg/kg) was intraperitoneally injected into Balb/c mouse seven times at hourly intervals to prepare a pancreatitis model.
Optical images were obtained after injecting each of the ^64Cu-labeled complex compounds of Example 1 and Example 20 into the prepared rat models having pancreatitis, and PET images were obtained after excision of tissues thereof.

Sepsis model = test: Imaging study in sepsis model (PET); type: in vivo, ICR mice
Text: After the lower abdominal region of ICR mice was opened, a small puncture in the appendix was made by using a syringe needle to prepare an acute sepsis model.
PET images were obtained after injecting the ^64Cu-labeled complex compound of Example 20 into the prepared rat model having sepsis.

Structure (SMILES)	uptake in the tongue [1]	Decomplexation [%] [2] [%]	Decomplexation [%] [3] [%]	Decomplexation [%] [4] [%]	uptake in the tumor region versus background (CT26 tumor)	optical imaging signals at four injected sites (matrigel alone, +NaCl, +0.5 mg NaHS, +0.05 mg NaHS) ([5]; 1.8 mCi via the tails of rats, imaging immediately)	optical imaging signals at four injected sites (matrigel alone, +NaCl, +0.5 mg NaHS, +0.05 mg NaHS) ([5]; after 4 hours)	Decomplexation [%] [6] [%]	uptake in the tumor region versus background (EMT6 tumor)	Decomplexation [%] [7] [%]	Decomplexation [%] [8] [%]	Decomplexation [%] [9] [%]	Decomplexation [%] [10] [%]	uptake in the joint region (Arthritis model)	uptake in the pancreas (Pancreatitis model)	uptake in the lung (Sepsis model)	uptake throughout the body (Sepsis model)
C1C[N]2CC[N]3CC[N]4CC[N]1[64Cu]243 [Example 1, ^64Cu-labeled cyclen]	high uptake was observed in the tongue	1.4 ± 0.4	0.2 ± 0.0	0.5 ± 0.1	higher uptake was observed in the tumor region	signals were detected only in the lower two sites injected with NaHS	signals were still detected only in the lower two sites	0.7 ± 0.0	higher uptake was observed in the tumor region	0.6 ± 0.4	0.5 ± 0.4	0.4 ± 0.3	0.7 ± 0.4	selective uptake in the joint region	high uptakes		
C1C[N]2CC[N]3CC[N]1[64Cu]23 [Example 20, ^64Cu-labeled TACN]		1.1 ± 0.5	0.5 ± 0.0	0.8 ± 0.3				2.6 ± 0.0		0.9 ± 0.1	0.8 ± 0.3	0.7 ± 0.6	0.7 ± 0.2		high uptakes	increased uptake was observed in the lung	uptake was increased throughout the body
